From US9783518B2, “Therapeutic agent and treatment method for ameliorating uremia” (Toray Industries, Inc., priority 2005, dated 2017)
“Also recorded” adds a separate entry of the source.

Columns and labels:
[1] = tested on: cats with chronic renal failure; test: Clinical score of uremic symptoms (activity + appetite) in cats with chronic renal failure; format: in vivo, cat; conditions: for clinical total score (full points 5): after one month
Procedure: Testing methods for the patients showing uremia caused by chronic renal failure, employed in Example 4 or later, will now be described. The criteria and evaluation items for the cats and dogs with chronic renal failure are as follows: Diagnosis of uremia and chronic renal failure were performed totally taking clinical findings (including findings of uremia) and the results of the blood test, blood biochemical analysis and urinalysis into consideration. As the clinical findings of uremia, existence and degree of polydipsia and diuresis, dehydration, anorexia, weight loss, vomiting symptom and state of dehydration were observed. Existence of chronic renal failure was judged based on the serum Cre value as generally employed. As reference data for grasping the degree of progress of chronic renal failure, BUN value was also monitored.
(§1) This pilot clinical test was performed after obtaining informed consent of the owners of the cats (clients) before the start of the test, wherein the clients received explanations about the fact that beraprost sodium had already been approved as a drug for human chronic artery obstruction and had already been marketed, and about the safety thereof. Further, giving first priority to the benefit of the patients and clients, conventional therapeutic methods were also combined appropriately for the individuals with progressed renal failure. Examples of the concomitant drugs employed include synthetic active carbons such as Covalzin, Kremezin and Nefguard; calcium preparations such as calcium carbonate; formula meals such as k/d and low-protein diets; and infusion solutions. However, in cases where there was a rational reason and consent by the owner was obtained, beraprost sodium alone was administered even to the individual with progressed renal failure. On the other hand, drugs thought to influence on the action of beraprost sodium, such as vasodilators (e.g., enalapril), diuretic (e.g., furosemide), drugs which influence on renal blood flow (e.g., dopamine) and steroids (e.g., prednisolone) were not used.
Administration of beraprost sodium was conducted by orally administering the tablet with a content of 150 μg/tablet (Example 1) twice a day (300 μg/head/day). The administration was conducted every day and continued basically for 6 months, and in cases where the owner desired, the administration was continued even after the test period. The Examples of the present invention include both cases where the dosing period was less than 6 months and more than 6 months.
Evaluation of degree of improvement of the uremic symptoms was carried out as follows: From the clinical symptoms related to uremia, activity and appetite, which are unlikely to be overlooked and which can be observed universally from before to after the test period, were selected. […] The evaluation was carried out based on the total points (full points were 5 points). Thus, a higher point indicates more improvements in the clinical symptoms.

[2] = tested on: cats with chronic renal failure; test: Adverse events during treatment of cats with chronic renal failure; format: in vivo, cat
Procedure: as §1
[…] The administration was conducted every day and continued basically for 6 months, and in cases where the owner desired, the administration was continued even after the test period. The Examples of the present invention include both cases where the dosing period was less than 6 months and more than 6 months.

healthy cats = test: Blood pressure and heart rate (oscillometric) in healthy cats; format: in vivo, cat
Procedure: In this study, 3 male cats and 2 female cats, totally 5 Japanese cats, aging 3 to 6 years old were used, which were raised in an animal hospital and for which no abnormalities were observed clinically and by blood test. The subject cats were individually placed in each cage in which each cat was allowed to take water ad libitum, and each cat was fed twice a day after measuring the necessary items. For the purpose of acclimatization, the cats were measured for blood pressure noninvasively twice a day for 2 weeks.
Blood pressure and heart rate were measured as follows: These were noninvasively measured oscillometrically by using Life Scope 9 produced by NIHON KOHDEN. Systolic pressure, diastolic pressure and heart rate were measured 5 times each before the administration of beraprost sodium and 30 minutes, 1 hour, 2 hours and 3 hours after administration of beraprost sodium at the right foreleg of each cat. From the 5 measured values, the maximum and minimum values were excluded, and the average of the remaining 3 measured values was adopted as the measured value of the individual at the time point. The measurements were carried out every time for 7 days, and the responses by the respective administrations had about the same pattern. In the Example, the results (FIGS. 1 and 2) at the first administration of beraprost sodium are shown as a representative.
In each administration series, the same cat was used in each administration series as the subject cat for the correctness of the evaluation of the test drug. To eliminate the influence of the test drug of the previous series, wash out period of 2 weeks were given after the termination of the respective series. In the beraprost sodium administration series and the placebo administration series, the solution-containing capsules prepared in Example 2 were used. Administration was performed orally at fasting twice a day at intervals of 12 hours for continuous 7 days.
Statistical analysis was carried out using a statistical software Stat View J-4.5 (Abacus Concepts). Since the parameter values before and after the administration to the same individual are compared, significant test was carried out by the paired t-test. In any of the cases, when the significance level was less than 5%, it was judged as significant.

[3] = tested on: patients with diabetic nephropathy; conditions: cited from earlier work
[4] = tested on: immune complex-induced glomerulonephritis mouse NZB/WF1; conditions: administered before onset; cited from earlier work
[5] = tested on: rat glomerulonephritis models; conditions: prophylactic administration before the nephritis-inducing substance; cited from earlier work
[6] = tested on: patients with renal failure; conditions: renal failure in conservative stage; cited from earlier work
[7] = first administration, 10-100 μg/kg oral

CC#CC[C@@H](C)[C@H](O)/C=C/[C@@H]1[C@H]2c3cccc(CCCC(=O)[O-])c3O[C@H]2C[C@H]1O.[Na+] (mixture of isomers) [beraprost sodium, Sodium rac-(1R,2R,3aS,8bS)-2,3,3a,8b-tetrahydro-2-hydroxy-1-[(E)-(3S,4RS)-3-hydroxy-4-methyloct-1-en-6-ynyl]-1H-cyclopenta[b][1]benzofuran-5-butanoate]
clinical score (full points 5) ([1]; Case-A, male cat 5 y, 150 μg tablet oral BID alone, first month): 4 | clinical score (full points 5) ([1]; Case-A, 150 μg oral BID alone, second month, maintained for 6 months): 5 | clinical conditions / uremic symptoms at follow up ([1]; Case-A, 6 months after termination (12 months after start)): not observed at all; also recorded: very good | outcome of uremia and renal failure ([1]; Case-A, 6 months of 150 μg oral BID alone): completely cured | differences from normal cats in clinical observations and biochemical markers ([1]; Case-A, end of the 6-month dosing period): no differences | total score of the clinical symptoms (full points 5) ([1]; Case-B, male cat 4 y, 150 μg oral BID alone, 1 month after start, 3 points before): 5 points | clinical symptoms ([1]; Case-B, first to second month): slight amelioration | clinical score (full points 5) ([1]; Case-B, from the fourth month): 5 points | clinical score (full points 5) ([1]; Case-C, female cat 16 y, 150 μg oral BID alone, second week, 2 points before): 4 points | clinical score (full points 5) ([1]; Case-C, after 2.5 months): 5 points | clinical score (full points 5) ([1]; Case-C, after the sixth week): 4 points | clinical score (full points 5) ([1]; Case-C, sixth week): 2 points | clinical total score (full points 5) ([1]; Case-D, male Siamese cat 17 y, 150 μg oral BID alone, 2 points before): 5 points | clinical total score (full points 5) ([1]; Case-E, 150 μg oral BID plus Covalzin 200 mg/BID, calcium preparation, formula meal, infusion, 0 point before): 4 points | dehydration ([1]; Case-E, combination therapy, first about 3 months): completely disappeared | clinical score (full points 5) ([1]; Case-E, combination therapy, for about 3 months): 5 points | clinical score (full points 5) ([1]; Case-E, combination without Covalzin from fourth month, for about 2 months): 3 points | clinical score (full points 5) ([1]; Case-E, combination without Covalzin, 7th to 8th month): 5 points | clinical score (full points 5) ([1]; Case-F, 150 μg oral BID added to insulin, active carbon, calcium carbonate, first month, continues 10 months): 5 points | uremic symptoms ([1]; Case-F, combination therapy, after start of beraprost sodium): disappeared; also recorded: quickly improved | appetite and desire for water ([1]; cats with renal failure, overall): clearly improved | adverse events such as diarrhea, vomiting ([2]; Case-A, 150 μg oral BID, 6 months): no adverse event | adverse events ([2]; Case-B, daily administration continued for 1 and half years): no adverse event has been observed at all | adverse events such as diarrhea, vomiting ([2]; Case-C, 150 μg oral BID alone): no adverse event | adverse events such as diarrhea, vomiting ([2]; Case-D, 150 μg oral BID alone): no adverse event | adverse events such as diarrhea, vomiting ([2]; Case-E, 150 μg oral BID, combination therapy): no adverse event | adverse events such as diarrhea, vomiting ([2]; Case-F, 150 μg oral BID, combination therapy): no adverse event | adverse events such as diarrhea, vomiting ([2]; Case-G, 40 μg/head/BID): no adverse event | maximum change in heart rate (increase) (healthy cats; 100 μg/kg oral, 30 minutes after administration): about 25% | time to restoration of heart rate to the level before administration (healthy cats; any dose (10-100 μg/kg oral)): ≤ 2 h | diastolic pressure (healthy cats; [7]): No significant change | pulse pressure (healthy cats; [7]): No significant change | systolic pressure (healthy cats; [7]): No significant change | change in heart rate (healthy cats; from 30 μg/kg/BID oral, 30 minutes to 1 hour after administration, not at 10 μg/kg/BID): significant (p<0.05) dose-dependent increase | urinary microalbumin [3]: decreased | onset of glomerulonephritis (index: urinary excretion of albumin) [4]: can be inhibited | onset of nephritis (urinary excretion of albumin) [5]: prevented | renal function (creatinine clearance or reciprocal of serum creatinine) [6]: reduced the decrease in renal function
